Patent US11512111B2, “Yeats inhibitors and methods of use thereof” (The University of Hong Kong, priority 2017, dated 2022)
Residues, ends and D or L forms follow the SMILES beside them. *: point of attachment. Oxazole(5-CO) = O=C(c1cnco1)*

Tests used:
[1] = target: T1, AF9 YEATS domain (Homo sapiens, UniProt P42568); assay: Photo-cross-linking-based competition assay (photoaffinity probe, click chemistry, in-gel fluorescence); type: binding; conditions: for IC50: competition with photoaffinity probe, in-gel fluorescence
T1 construct: His-AF9 (1-138); His (N); made in house; host or cells: E. coli Rosetta
T1 sequence (P42568 1-138): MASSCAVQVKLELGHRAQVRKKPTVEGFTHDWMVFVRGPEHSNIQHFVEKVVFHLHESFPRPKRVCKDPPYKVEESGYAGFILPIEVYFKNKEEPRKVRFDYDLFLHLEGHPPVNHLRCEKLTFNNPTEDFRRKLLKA
Method: Mobile phase used were water with 0.1% trifluoroacetic acid (buffer A) and 90% acetonitrile in water with 0.1% trifluoroacetic acid (buffer B). The purity (>95%) and identity of peptides were confirmed by LC-MS. The inhibitory activities of the inhibitors were determined by a photo-cross-linking-based competition assay. […] The reactions were incubated for 1 h at r.t . . . . The reactions were quenched by adding 5 volumes of ice-cold acetone and placed at −20° C. overnight to precipitate proteins. After protein precipitation, samples were centrifuged at 6000×g for 5 min at 4° C. The supernatant was discarded and the pellet was washed with ice-cooled methanol twice and air-dried for 10 min. […] Samples were then resolved by SDS-PAGE. The labeled proteins were visualized by scanning the gel on a Typhoon 9410 variable mode imager (excitation 532 nm, emission filter 580 nm). A photo-cross-linking based method was used in this study to estimate inhibitory activity (FIG. 28). This method requires the use of a photoaffinity probe. The probe (probe 1 (SEQ ID NO:48), see below) is derived from a crotonylated peptide, ligand of the protein, carrying a photo-cross-linker and a terminal alkyne as bioorthogonal. The YEATS domain is incubated and bound to the probe through Kcr-dependent recognition. Upon UV-irradiation, the photo-cross-linker is activated and rapidly cross-linked to the protein, converting the non-covalent protein-probe interaction into a covalent linkage. The probe-labeled protein is subsequently conjugated to an azide-functionalized fluorescence dye (for example, rhodamine-N3, Rho-N3) via Cu(I)-catalyzed azide-alkyne cycloaddition (CuAAC, or “click” chemistry). After SDS-PAGE, the protein can be visualized by in-gel fluorescence scanning. If photo-cross-linking of the YEATS domain with photoaffinity probe is performed in the presence of an inhibitor, which occupies the Kcr binding pocket of the YEATS domain and thus inhibits the protein-probe interaction, the percentage of the YEATS domain in the sample that is labeled by the probe will be reduced. The in-gel fluorescence intensity detected will also be decreased. By varying the concentration of inhibitor added in the sample and quantifying the resulting fluorescence intensities, a competition curve of the inhibitor toward the protein-probe interaction will be obtained, which can be used to estimate the IC50 value. Due to the covalent nature of photo-cross-linking, weak protein-protein interactions can be captured and eventually visualized. The protein concentration used in the assay can be as low as several nanograms per microliter, while the fluorescence signal can still be robustly detected and quantified.

[2] = target: T2, ENL YEATS domain (Homo sapiens, UniProt Q03111); assay: Photo-cross-linking-based competition assay; type: binding; conditions: for IC50: competition with photoaffinity probe, in-gel fluorescence
T2 construct: His-SUMO-ENL (1-138); His (N); SUMO (N); made in house; host or cells: E. coli Rosetta
T2 sequence (Q03111 1-138): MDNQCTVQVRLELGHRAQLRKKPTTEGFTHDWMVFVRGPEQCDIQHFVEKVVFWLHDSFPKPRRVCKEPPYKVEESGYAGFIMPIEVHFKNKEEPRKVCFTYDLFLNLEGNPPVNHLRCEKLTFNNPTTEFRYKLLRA

[3] = target: T3, GAS41 YEATS domain (Homo sapiens, UniProt O95619); assay: Photo-cross-linking-based competition assay; type: binding; conditions: competition with photoaffinity probe, in-gel fluorescence
T3 construct: His-Gas41 (15-159); His (N); made in house; host or cells: E. coli Rosetta
T3 sequence (O95619 15-159): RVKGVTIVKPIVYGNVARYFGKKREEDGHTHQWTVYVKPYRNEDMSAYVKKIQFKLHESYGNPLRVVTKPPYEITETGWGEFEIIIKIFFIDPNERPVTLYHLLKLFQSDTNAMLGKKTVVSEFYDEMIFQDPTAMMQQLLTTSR
Method: (§1) Peptides were synthesized on a Rink-Amide MBHA resin followed by a standard Fmoc-based solid-phase peptide synthesis protocol. After all amino acids were coupled, protecting groups and cleavage of peptides from the resin were done by incubating the resin with a cleavage cocktail containing 95% trifluoroacetic acid, 2.5% triisopropylsilane, 1.5% H2O and, 1% thioanisole for 2 h. Peptides were purified by preparative HPLC with an XBridge Prep OBDTM C18 column (30 mm×250 mm, 10 μm, Waters). Mobile phase used were water with 0.1% trifluoroacetic acid (buffer A) and 90% acetonitrile in water with 0.1% trifluoroacetic acid (buffer B). The purity (>95%) and identity of peptides were confirmed by LC-MS. The inhibitory activities of the inhibitors were determined by a photo-cross-linking-based competition assay.
(§2) The probe 4.1 or 4.2 (2 μM) with indicated concentrations of different inhibitors was incubated with YEATS domain proteins (5 or 20 ng/μL) in binding buffer (50 mM HEPES, 150 mM NaCl, 2 mM MgCl2, 0.1% Tween-20, 20% glycerol, pH 7.5, with or without 50 ng/μL BSA) for 10 min at 4° C. Then, the samples were irradiated at 365 nm using a UV lamp for 20 min in a 96-well plate on ice.
(§3) To the prepared photo-cross-linking samples, 100 μM Rho-N3 (10 mM stock in DMSO) was added, followed by 1 mM TCEP (freshly prepared 50 mM stock in H2O), 100 μM TBTA (10 mM stock in DMSO), and finally the reactions were initiated by the addition of 1 mM CuSO4 (freshly prepared 50 mM stock in H2O). The reactions were incubated for 1 h at r.t . . . . The reactions were quenched by adding 5 volumes of ice-cold acetone and placed at −20° C. overnight to precipitate proteins.
(§4) After protein precipitation, samples were centrifuged at 6000×g for 5 min at 4° C. The supernatant was discarded and the pellet was washed with ice-cooled methanol twice and air-dried for 10 min. The proteins were resuspended in 1×LDS sample loading buffer (Invitrogen) with 50 mM DTT, and heated at 80° C. for 8 min. Samples were then resolved by SDS-PAGE. The labeled proteins were visualized by scanning the gel on a Typhoon 9410 variable mode imager (excitation 532 nm, emission filter 580 nm).
(§5) A photo-cross-linking based method was used in this study to estimate inhibitory activity (FIG. 28). This method requires the use of a photoaffinity probe. The probe (probe 1 (SEQ ID NO:48), see below) is derived from a crotonylated peptide, ligand of the protein, carrying a photo-cross-linker and a terminal alkyne as bioorthogonal.
(§6) The YEATS domain is incubated and bound to the probe through Kcr-dependent recognition. Upon UV-irradiation, the photo-cross-linker is activated and rapidly cross-linked to the protein, converting the non-covalent protein-probe interaction into a covalent linkage. The probe-labeled protein is subsequently conjugated to an azide-functionalized fluorescence dye (for example, rhodamine-N3, Rho-N3) via Cu(I)-catalyzed azide-alkyne cycloaddition (CuAAC, or “click” chemistry). After SDS-PAGE, the protein can be visualized by in-gel fluorescence scanning. If photo-cross-linking of the YEATS domain with photoaffinity probe is performed in the presence of an inhibitor, which occupies the Kcr binding pocket of the YEATS domain and thus inhibits the protein-probe interaction, the percentage of the YEATS domain in the sample that is labeled by the probe will be reduced. The in-gel fluorescence intensity detected will also be decreased. By varying the concentration of inhibitor added in the sample and quantifying the resulting fluorescence intensities, a competition curve of the inhibitor toward the protein-probe interaction will be obtained, which can be used to estimate the IC50 value. Due to the covalent nature of photo-cross-linking, weak protein-protein interactions can be captured and eventually visualized. The protein concentration used in the assay can be as low as several nanograms per microliter, while the fluorescence signal can still be robustly detected and quantified. […]

[4] = target: T4, YEATS2 domain (Homo sapiens, UniProt Q9ULM3); assay: Photo-cross-linking-based competition assay; type: binding; conditions: competition with photoaffinity probe, in-gel fluorescence
T4 construct: His-SUMO-YEATS2 (201-332); His (N); SUMO (N); made in house; host or cells: E. coli Rosetta
T4 sequence (Q9ULM3 201-332): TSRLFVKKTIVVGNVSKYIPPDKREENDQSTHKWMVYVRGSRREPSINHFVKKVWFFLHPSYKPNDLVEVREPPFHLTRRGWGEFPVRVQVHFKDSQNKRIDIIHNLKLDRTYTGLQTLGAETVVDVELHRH
Method: as §1, §2, §3, §4, §5, §6

[5] = target: T5, ENL (Homo sapiens, UniProt Q03111); assay: Cellular thermal shift assay (CETSA) in MOLM-13 (FLAG-ENL) cells; type: cell-based; conditions: MOLM13 (FLAG-ENL), 50 μM, 16 hours, anti-FLAG
T5 construct: expressed in transfected cells; host or cells: MOLM-13 (FLAG-ENL) cells
T5 sequence (Q03111 1-559): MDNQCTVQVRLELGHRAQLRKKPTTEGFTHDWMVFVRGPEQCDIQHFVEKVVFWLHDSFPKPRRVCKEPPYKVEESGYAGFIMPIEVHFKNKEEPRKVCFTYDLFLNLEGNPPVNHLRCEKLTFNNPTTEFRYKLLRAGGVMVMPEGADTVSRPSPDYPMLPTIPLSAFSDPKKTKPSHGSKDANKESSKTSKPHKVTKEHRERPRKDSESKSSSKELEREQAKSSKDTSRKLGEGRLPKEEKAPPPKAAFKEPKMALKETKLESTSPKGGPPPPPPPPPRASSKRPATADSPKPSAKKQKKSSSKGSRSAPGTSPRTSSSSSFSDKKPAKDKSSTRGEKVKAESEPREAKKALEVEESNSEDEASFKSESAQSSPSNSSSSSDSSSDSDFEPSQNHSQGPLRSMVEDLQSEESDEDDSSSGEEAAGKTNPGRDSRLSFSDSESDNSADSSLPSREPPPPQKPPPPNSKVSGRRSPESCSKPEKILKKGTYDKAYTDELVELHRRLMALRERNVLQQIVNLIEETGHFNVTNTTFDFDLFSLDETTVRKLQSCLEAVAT
Method: We next applied the cellular thermal shift assay (CETSA) to examine if XL-13m was cell permeable and could target ENL in living cells. MOLM-13 (FLAG-ENL) were treated with XL-13m for […] and then heated at different temperature to denature and precipitate proteins. […] Soluble proteins were extracted by freeze-thaw cycle and subjected to western blotting analysis.
MOLM13 (FLAG-ENL) cells were incubated with or without 50 μM compound for 16 hours and then were collected for cellular thermal shift assay (CETSA) as previously reported. Anti-FLAG antibody was used to detect ENL proteins and γ-actin blotting served as negative control.

[6] = target: T1, AF9 YEATS domain; assay: Isothermal titration calorimetry (ITC); type: binding; conditions: ITC
Method: (§7) ^1H and ^13C NMR spectra were recorded on Bruker UltraShield 400 or 600 MHz spectrometers and were calibrated using residual undeuterated solvent as an internal reference. Chemical shifts were reported in ppm, and coupling constant J was reported in Hz. Peptides were analyzed by LC-MS with an Agilent 1260 Infinity HPLC system connected to a Thermo Finnigan LCQ DecaXP MS detector. Peptides were purified on a preparative HPLC system with Waters 2535 Quaternary Gradient Module, Waters 515 HPLC pump, Waters SFO System Fluidics Organizer, and Waters 2767 Sample Manager. Photo-cross-linking was performed with an ENF-260C/FE hand-hang UV lamp (Spectroline). In-gel fluorescence scanning was performed using a Typhoon 9410 variable mode imager from GE Healthcare Life Sciences (excitation 532 nm, emission 580 nm). Images of Coomassie blue staining were acquired by MyECL Imager from Thermo Scientific. All images were processed by ImageJ software (National Institutes of Health), and contrast was adjusted appropriately. ITC experiments were performed with a MicroCal iTC200 titration calorimeter (MicroCal). IC50 and dissociation constants were fit with Origin 7.0 software package (OriginLab).
To further validate the reliability of the results obtained from the photo-cross-linking-based competition assay, we performed isothermal titration calorimetry (ITC) to determine the direct binding affinities of the inhibitors toward the AF9 YEATS domain. […] The ITC measurements were in agreement with the IC50 data, indicating the reliability of the results obtained from the photo-cross-linking-based competition assay.

[7] = target: T2, ENL YEATS domain; assay: Isothermal titration calorimetry (ITC); type: binding
Method: as §7
The compound Cyclic 3 was also tested with AF9 and ENL YEATS domains.

Row | SMILES | IC50 [1] [µM] | IC50 [2] [µM] | activity drop on ENL compared to AF9 ([2]; ratio of IC50 values) [fold] | IC50 [3] [µM] | IC50 [4] [µM] | activity on AF9 weaker than on ENL ([1]; ratio of IC50 values) [fold] | thermal shift: targeting of ENL protein in living cells [5] | Kd [6] [µM] | Kd [7] [µM]
1 | C[C@H](NC(=O)[C@@H](NC(=O)[C@H](CCC(N)=O)NC(=O)OCc1ccccc1)[C@@H](C)O)C(=O)N[C@@H](CCCNC(=N)N)C(=O)N[C@@H](CCCCNC(=O)c1ccco1)C(N)=O [Compound 26] | 0.26 | 1.3 | 5 | 123 | 42.4 | – | – | – | –
2 | C[C@H](NC(=O)[C@@H](NC(=O)[C@H](CCC(N)=O)NC(=O)OCc1ccccc1)[C@@H](C)O)C(=O)N[C@@H](CCCNC(=N)N)C(=O)N[C@@H](CCCCNC(=O)c1cnco1)C(N)=O [Compound 27] | 0.24 | – | – | 14.5 | 98.7 | – | – | – | –
3 | CC(=O)N[C@@H](C)C(=O)N[C@@H](C)C(=O)N[C@@H](CCCNC(=N)N)C(=O)N[C@@H](CCCCNC(=O)c1cnco1)C(N)=O [Compound 40] (Ac-AARK(Oxazole(5-CO))-NH2) | – | – | – | – | – | 6.1 | revealed the target of ENL protein | – | –
4 | C[C@@H]1NC(=O)[C@H]([C@H](C)O)NC(=O)[C@@H](NC(=O)OCc2ccccc2)CCCCNC(=N)NCCC[C@H](C(=O)N[C@@H](CCCCNC(=O)c2cnco2)C(N)=O)NC1=O [Compound 80] | – | 12.9 | – | 53.7 | 22.7 | – | – | 0.52 | 11.4
5 | C[C@@H]1NC(=O)[C@H]([C@H](C)O)NC(=O)[C@@H](NC(=O)OCc2ccccc2)Cn2cc(nn2)CNC(=N)NCCC[C@H](C(=O)N[C@@H](CCCCNC(=O)c2cnco2)C(N)=O)NC1=O [Compound 82] | 5.1 | 9.23 | – | – | – | – | – | – | –
